Where two headings read alike, the source gives them in different places.
Tested on: 280 human cancer cell lines
Assay: OncoPanel cell proliferation assay (10-day)
Type: cell-based
Details: Homo sapiens; for EC50: read-out: Cell Count EC50; for IC50: read-out: Cell Count IC50
[1] = SW872, SW872, Soft Tissue - Sarcoma
[2] = SW 954, SW954, Female GU - Vulva
[3] = SW982, SW982, Soft Tissue - Sarcoma
[4] = SW1353, SW1353, Soft Tissue - Osteosarcoma
[5] = TE 125.T, Soft Tissue - Sarcoma
[6] = TE 381.T, Soft Tissue - Sarcoma
[7] = U2OS, Soft Tissue - Osteosarcoma
[8] = U-118-MG, U-118 MG, CNS - Glioma
[9] = VA-ES-BJ, Soft Tissue - Sarcoma
[10] = WM 266-4, WM-266-4, Skin (Melanoma)
[11] = NCI-H295R, Endocrine - Adrenal gland

## CC(C)=CCC[C@H](CO)[C@@H]1CC[C@@H](C)c2c1cc(C)c(O)c2O [Compound 1, 7,8,18-trihydroxyserrulat-14-ene]
[1]
  EC50: 0.96 µM
  IC50: 0.96 µM
SW872, SW872, Soft Tissue - Sarcoma, read-out: Cell Count GI50
  GI50: 0.96 µM
SW900, SW900, Lung - SCLC
  EC50: 3.29 µM
  IC50: 3.33 µM
SW900, SW900, Lung - SCLC, read-out: Cell Count GI50
  GI50: 3.24 µM
SW948, SW948, Colon
  EC50: 2.21 µM
  IC50: 2.21 µM
SW948, SW948, Colon, read-out: Cell Count GI50
  GI50: 2.2 µM
[2]
  EC50: 7.63 µM
  IC50: 7.63 µM
SW 954, SW954, Female GU - Vulva, read-out: Cell Count GI50
  GI50: 7.6 µM
[3]
  EC50: 1.07 µM
  IC50: 1.07 µM
SW982, SW982, Soft Tissue - Sarcoma, read-out: Cell Count GI50
  GI50: 1.07 µM
SW1088, SW1088, CNS - Glioma
  EC50: 2.44 µM
  IC50: 2.44 µM
SW1088, SW1088, CNS - Glioma, read-out: Cell Count GI50
  GI50: 2.43 µM
[4]
  EC50: 1 µM
  IC50: 1 µM
SW1353, SW1353, Soft Tissue - Osteosarcoma, read-out: Cell Count GI50
  GI50: 0.99 µM
SW1417, SW1417, Colon
  EC50: 3.15 µM
  IC50: 3.15 µM
SW1417, SW1417, Colon, read-out: Cell Count GI50
  GI50: 3.07 µM
SW1463, SW1463, Colon
  EC50: 3.73 µM
  IC50: 3.75 µM
SW1463, SW1463, Colon, read-out: Cell Count GI50
  GI50: 3.71 µM
SW1783, SW1783, CNS - Glioma
  EC50: 3.19 µM
  IC50: 3.19 µM
SW1783, SW1783, CNS - Glioma, read-out: Cell Count GI50
  GI50: 3.09 µM
SW-403, SW403, Colon
  EC50: 8.09 µM
  IC50: 8.11 µM
SW-403, SW403, Colon, read-out: Cell Count GI50
  GI50: 7.89 µM
SW-620, SW620, Colon
  EC50: 1.48 µM
  IC50: 1.48 µM
SW-620, SW620, Colon, read-out: Cell Count GI50
  GI50: 1.48 µM
SiHa, Female GU - Cervix
  EC50: 5.22 µM
  IC50: 5.23 µM
SiHa, Female GU - Cervix, read-out: Cell Count GI50
  GI50: 5.17 µM
T24, Bladder
  EC50: 1.44 µM
  IC50: 1.44 µM
T24, Bladder, read-out: Cell Count GI50
  GI50: 1.44 µM
T47D, Breast, read-out: Cell Count GI50
  GI50: 4.28 µM
T98G, CNS - Glioma, read-out: Cell Count GI50
  GI50: 2.05 µM
TCC-SUP, TCCSUP, Bladder
  EC50: 1.75 µM
  IC50: 1.75 µM
TCC-SUP, TCCSUP, Bladder, read-out: Cell Count GI50
  GI50: 1.72 µM
[5]
  EC50: 6.47 µM
  IC50: 9.21 µM
TE 125.T, Soft Tissue - Sarcoma, read-out: Cell Count GI50
  GI50: 1.48 µM
[6]
  EC50: 1.62 µM
  IC50: 1.62 µM
TE 381.T, Soft Tissue - Sarcoma, read-out: Cell Count GI50
  GI50: 1.59 µM
TF-1, Leukemia
  EC50: 2.11 µM
  IC50: 2.11 µM
TF-1, Leukemia, read-out: Cell Count GI50
  GI50: 1.98 µM
THP-1, Thp1, Leukemia
  EC50: 1.38 µM
  IC50: 1.38 µM
THP-1, Thp1, Leukemia, read-out: Cell Count GI50
  GI50: 1.34 µM
TUR, Lymphoma
  EC50: 5.09 µM
  IC50: 5.09 µM
TUR, Lymphoma, read-out: Cell Count GI50
  GI50: 5.08 µM
[7]
  EC50: 1.66 µM
  IC50: 1.66 µM
U2OS, Soft Tissue - Osteosarcoma, read-out: Cell Count GI50
  GI50: 1.65 µM
U138-MG, U-138MG, CNS - Glioma
  EC50: 6.29 µM
  IC50: 6.33 µM
U138-MG, U-138MG, CNS - Glioma, read-out: Cell Count GI50
  GI50: 6.15 µM
U266B1, Myeloma
  EC50: 3.22 µM
  IC50: 3.22 µM
U266B1, Myeloma, read-out: Cell Count GI50
  GI50: 3.08 µM
U-87 MG, CNS - Glioma
  EC50: 2.12 µM
  IC50: 2.12 µM
U-87 MG, CNS - Glioma, read-out: Cell Count GI50
  GI50: 2.04 µM
[8]
  EC50: 4.56 µM
  IC50: 4.58 µM
U-118-MG, U-118 MG, CNS - Glioma, read-out: Cell Count GI50
  GI50: 4.49 µM
UMUC3, UM-UC-3, Bladder
  EC50: 1.85 µM
  IC50: 1.85 µM
UMUC3, UM-UC-3, Bladder, read-out: Cell Count GI50
  GI50: 1.84 µM
[9]
  EC50: 3.67 µM
  IC50: 3.67 µM
VA-ES-BJ, Soft Tissue - Sarcoma, read-out: Cell Count GI50
  GI50: 3.55 µM
[10]
  EC50: 1.15 µM
  IC50: 1.15 µM
WM 266-4, WM-266-4, Skin (Melanoma), read-out: Cell Count GI50
  GI50: 1.14 µM
WiDr, Colon
  EC50: 2.32 µM
  IC50: 2.32 µM
WiDr, Colon, read-out: Cell Count GI50
  GI50: 2.31 µM
Y79, Eye
  EC50: 5.6 µM
  IC50: 5.6 µM
Y79, Eye, read-out: Cell Count GI50
  GI50: 5.33 µM
YAPC, Pancreas
  EC50: 1.91 µM
  IC50: 1.91 µM
YAPC, Pancreas, read-out: Cell Count GI50
  GI50: 1.9 µM
[11]
  EC50: 14.7 µM
  IC50: 14.7 µM
T47D, Breast
  EC50: 4.63 µM
  IC50: 4.63 µM
T98G, CNS - Glioma
  EC50: 2.05 µM
  IC50: 2.05 µM
read-out: GI50
  GI50: 0.4 to 1 µM
